± gives the standard deviation of the averaged measurements.
Legend:
U-2 OS [1] = experiment: cell painting activity score (Mahalanobis distance from DMSO wells); higher = stronger morphological phenotype; details: 24 h
Procedure: (§1)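 Cell painting in U-2 OS cells (384-well, about 1,500 cells per well), compound exposure 24 h, usually six 2-fold concentrations from 20 to 0.625 uM (some compounds higher or lower). Relative cell count is the cell number per well relative to DMSO wells. Activity score is the Mahalanobis distance of the morphological profile from DMSO control wells. Mean of four technical replicate plates.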

U-2 OS [2] = experiment: relative cell count vs DMSO (cell painting) (fraction of DMSO control); higher = more cells remaining (less cytotoxic); details: 24 h
Procedure: as §1

U-2 OS [3] = experiment: AUC of culture confluence over time (live-cell imaging) (AUC (confluence % x time)); higher = more confluent culture (less growth inhibition)
Procedure: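 Live-cell Incucyte imaging of U-2 OS cells in F-12K medium. Compounds were tested mostly at 5, 10 and 20 uM, and cells were imaged every 4 h for up to 60 h. Value is the area under the curve of phase-contrast confluence over time.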

Row | Structure (SMILES) | cell painting activity score (U-2 OS [1]; 0.625 µM) | cell painting activity score (U-2 OS [1]; 1.25 µM) | cell painting activity score (U-2 OS [1]; 2.5 µM) | cell painting activity score (U-2 OS [1]; 5 µM) | cell painting activity score (U-2 OS [1]; 10 µM) | cell painting activity score (U-2 OS [1]; 20 µM) | relative cell count (U-2 OS [2]; 0.625 µM) | relative cell count (U-2 OS [2]; 1.25 µM) | relative cell count (U-2 OS [2]; 2.5 µM) | relative cell count (U-2 OS [2]; 5 µM) | relative cell count (U-2 OS [2]; 10 µM) | relative cell count (U-2 OS [2]; 20 µM) | AUC of culture confluence over time (U-2 OS [3]; 5 µM) | AUC of culture confluence over time (U-2 OS [3]; 10 µM) | AUC of culture confluence over time (U-2 OS [3]; 20 µM) | cell painting activity score (U-2 OS [1]; 0.019532 µM) | cell painting activity score (U-2 OS [1]; 0.07812 µM) | cell painting activity score (U-2 OS [1]; 0.3124 µM) | cell painting activity score (U-2 OS [1]; 0.3126 µM) | relative cell count (U-2 OS [2]; 0.019532 µM) | relative cell count (U-2 OS [2]; 0.07812 µM) | relative cell count (U-2 OS [2]; 0.3124 µM) | relative cell count (U-2 OS [2]; 0.3126 µM)
1 | CO[C@@H]1[C@H](N(C)C(=O)c2ccccc2)C[C@H]2O[C@]1(C)n1c3ccccc3c3c4c(c5c6ccccc6n2c5c31)C(=O)NC4 | 13.9 | 15.2 | 19.8 | 22.9 | 23.7 | 24.4 | 1.02 | 0.757 | 0.456 | 0.362 | 0.347 | 0.354 | – | – | – | – | – | – | – | – | – | – | –
2 | O=C(Nc1ccc([N+](=O)[O-])cc1Cl)c1cc(Cl)ccc1O | 5.54 | 8.61 | 10.3 | 16 | 17.7 | 14.8 | 1.13 | 1.05 | 1.06 | 0.922 | 0.808 | 0.753 | – | – | – | – | – | – | – | – | – | – | –
3 | CC(C)(C)c1cc(O)ccc1O | 4.14 | 4.2 | 5.45 | 5.28 | 4.94 | 7.97 | 0.908 | 0.958 | 0.948 | 0.913 | 0.945 | 0.949 | – | – | – | – | – | – | – | – | – | – | –
4 | Oc1ccc(/C=C/c2cc(O)cc(O)c2)cc1 | – | – | – | – | – | – | – | – | – | – | – | – | 49 | 46.4 | 42.5 | – | – | – | – | – | – | – | –
5 | O=C(O)C1(C(=O)O)CCC1.[NH2-].[NH2-].[Pt+2] | 4.1 | 4.15 | 4.49 | 4.29 | 5.7 | 6.66 | 0.92 | 0.853 | 0.786 | 0.855 | 0.844 | 0.814 | – | – | – | – | – | – | – | – | – | – | –
6 | CN[C@@H]1C[C@H]2O[C@@](C)([C@@H]1OC)n1c3ccccc3c3c4c(c5c6ccccc6n2c5c31)C(=O)NC4 | – | 24.2 ± 2.7 | – | 25.5 ± 2.6 | – | 24.1 ± 2 | – | 0.095 ± 0.0065 | – | 0.127 ± 0.042 | – | 0.128 ± 0.039 | – | – | – | 16.8 ± 1.3 | 19.8 ± 1.5 | 21.2 | 25.8 ± 2.3 | 0.757 ± 0.098 | 0.467 ± 0.25 | 0.294 | 0.0507 ± 0.0014
7 | N#CC(C#N)=NNc1cccc(Cl)c1 | 5.76 | 5.02 | 7.58 | 9.31 | 13.4 | 16.2 | 0.975 | 0.949 | 0.98 | 0.897 | 0.711 | 0.491 | – | – | – | – | – | – | – | – | – | – | –
8 | Oc1ccc(/C=C\c2cc(O)cc(O)c2)cc1 | – | – | – | – | – | – | – | – | – | – | – | – | 42.1 | 46.9 | 39.8 | – | – | – | – | – | – | – | –
9 | CC(C)C[C@@H](C=O)NC(=O)[C@@H](CC(C)C)NC(=O)[C@H](CC(C)C)NC(=O)OCc1ccccc1 | 4.19 | 4.34 | 5.35 | 5.4 | 3.89 | 7.43 | 1 | 0.959 | 0.944 | 0.993 | 0.986 | 0.909 | – | – | – | – | – | – | – | – | – | – | –
10 | COC1=C(OC)C(=O)c2ccccc2C1=O | 7.97 | 8.63 | 10.7 | 18.9 | 21.2 | 24.7 | 0.99 | 0.895 | 0.81 | 0.489 | 0.46 | 0.149 | – | – | – | – | – | – | – | – | – | – | –
11 | C[C@H](CC[C@@]1(O)O[C@H]2C[C@H]3[C@@H]4CC=C5C[C@@H](O[C@@H]6O[C@H](CO)[C@@H](O[C@@H]7O[C@@H](C)[C@H](O)[C@@H](O)[C@H]7O)[C@H](O)[C@H]6O[C@@H]6O[C@@H](C)[C@H](O)[C@@H](O)[C@H]6O)CC[C@]5(C)[C@H]4CC[C@]3(C)[C@H]2[C@@H]1C)CO[C@@H]1O[C@H](CO)[C@@H](O)[C@H](O)[C@H]1O | 14.9 | 14.4 | 15.1 | 16.6 | 21 | 22.7 | 0.811 | 0.808 | 0.734 | 0.502 | 0.0412 | 0.0114 | – | – | – | – | – | – | – | – | – | – | –
12 | O=C1Cc2c([nH]c3ccc(Br)cc23)-c2ccccc2N1 | 7.76 | 10.8 | 12.7 | 13.7 | 14.7 | 13.6 | 0.977 | 0.959 | 0.911 | 0.835 | 0.557 | 0.164 | – | – | – | – | – | – | – | – | – | – | –
13 | CCc1c2c(nc3ccc(O)cc13)-c1cc3c(c(=O)n1C2)COC(=O)[C@]3(O)CC | 12 | 12.3 | 12.7 | 12.3 | 12.1 | 14.9 | 0.523 | 0.525 | 0.515 | 0.467 | 0.446 | 0.482 | – | – | – | – | – | – | – | – | – | – | –
14 | COc1c(O)c2c(=O)cc3c4c5c(cc(=O)c6c(O)c(OC)c(CC(C)O)c(c(c1CC(C)O)c24)c65)OCO3 (stereo unspecified) | 4.68 | 7.7 | 10.5 | 13 | 12 | 13.9 | 0.971 | 0.918 | 0.859 | 0.682 | 0.499 | 0.366 | – | – | – | – | – | – | – | – | – | – | –
15 | O=C1C=C(Cl)C(=O)c2ccccc21 | 7.9 | 18.1 | 19.4 | 17.9 | 22.2 | 25.4 | 0.745 | 0.492 | 0.216 | 0.29 | 0.169 | 0.267 | – | – | – | – | – | – | – | – | – | – | –
16 | CCCCCCCCCCCCCCCCCCOP(=O)([O-])OC1CC[N+](C)(C)CC1 | 3.72 | 3.21 | 3.03 | 3.98 | 3.76 | 4.51 | 1.02 | 1.03 | 1.11 | 1.05 | 1.05 | 1.02 | – | – | – | – | – | – | – | – | – | – | –
17 | C=CCNC1=C2C[C@@H](C)C[C@H](OC)[C@H](O)[C@@H](C)/C=C(\C)[C@H](OC(N)=O)[C@@H](OC)/C=C\C=C(/C)C(=O)NC(=CC1=O)C2=O | 16.6 | 19.1 | 19.1 | 19.1 | 19.2 | 18.3 | 0.814 | 0.697 | 0.61 | 0.586 | 0.589 | 0.549 | – | – | – | – | – | – | – | – | – | – | –
18 | CCN(CC)CCCC(C)Nc1ccnc2cc(Cl)ccc12 (stereo unspecified) | 4.84 | 5.94 | 4.8 | 4.43 | 4.73 | 6.72 | 1.2 | 1.12 | 1.09 | 1.19 | 1.08 | 1.09 | – | – | – | – | – | – | – | – | – | – | –
19 | COc1ccc2cc1Oc1ccc(cc1)C[C@H]1c3cc(c(OC)cc3CCN1C)Oc1c(OC)c(OC)cc3c1[C@H](C2)N(C)CC3 | 5.28 | 5.79 | 5.97 | 16.8 | 28.3 | 14.8 | 1.08 | 1.06 | 1.04 | 1.07 | 0.973 | 0.322 | – | – | – | – | – | – | – | – | – | – | –
20 | COS(=O)(=O)O.C[n+]1c2ccccc2nc2ccccc21 | 4.8 | 5.06 | 9.91 | 14.3 | 19.6 | 23.1 | 0.956 | 0.92 | 0.807 | 0.265 | 0.282 | 0.0549 | – | – | – | – | – | – | – | – | – | – | –
21 | CC(C)(C)C1=CC(=O)C=CC1=O | 8.46 | 9.82 | 11.5 | 13.4 | 20.3 | 17.6 | 0.952 | 0.904 | 0.867 | 0.435 | 0.32 | 0.124 | – | – | – | – | – | – | – | – | – | – | –

From the supplement of paper PMC10011410
